This note sets out measurements from US20100209934A1, “METHOD OF IDENTIFYING AGENTS WHICH MODULATE THE ACTIVITY OF CALCIUM-ACTIVATED CHLORIDE CHANNEL” (SNU R&DB FOUNDATION, priority 2007, published 2010).

The target of assay [1] is T1, mANO1 (Mus musculus, UniProt Q8BHY3, S527P).
T1 sequence (Q8BHY3 1-960 S527P): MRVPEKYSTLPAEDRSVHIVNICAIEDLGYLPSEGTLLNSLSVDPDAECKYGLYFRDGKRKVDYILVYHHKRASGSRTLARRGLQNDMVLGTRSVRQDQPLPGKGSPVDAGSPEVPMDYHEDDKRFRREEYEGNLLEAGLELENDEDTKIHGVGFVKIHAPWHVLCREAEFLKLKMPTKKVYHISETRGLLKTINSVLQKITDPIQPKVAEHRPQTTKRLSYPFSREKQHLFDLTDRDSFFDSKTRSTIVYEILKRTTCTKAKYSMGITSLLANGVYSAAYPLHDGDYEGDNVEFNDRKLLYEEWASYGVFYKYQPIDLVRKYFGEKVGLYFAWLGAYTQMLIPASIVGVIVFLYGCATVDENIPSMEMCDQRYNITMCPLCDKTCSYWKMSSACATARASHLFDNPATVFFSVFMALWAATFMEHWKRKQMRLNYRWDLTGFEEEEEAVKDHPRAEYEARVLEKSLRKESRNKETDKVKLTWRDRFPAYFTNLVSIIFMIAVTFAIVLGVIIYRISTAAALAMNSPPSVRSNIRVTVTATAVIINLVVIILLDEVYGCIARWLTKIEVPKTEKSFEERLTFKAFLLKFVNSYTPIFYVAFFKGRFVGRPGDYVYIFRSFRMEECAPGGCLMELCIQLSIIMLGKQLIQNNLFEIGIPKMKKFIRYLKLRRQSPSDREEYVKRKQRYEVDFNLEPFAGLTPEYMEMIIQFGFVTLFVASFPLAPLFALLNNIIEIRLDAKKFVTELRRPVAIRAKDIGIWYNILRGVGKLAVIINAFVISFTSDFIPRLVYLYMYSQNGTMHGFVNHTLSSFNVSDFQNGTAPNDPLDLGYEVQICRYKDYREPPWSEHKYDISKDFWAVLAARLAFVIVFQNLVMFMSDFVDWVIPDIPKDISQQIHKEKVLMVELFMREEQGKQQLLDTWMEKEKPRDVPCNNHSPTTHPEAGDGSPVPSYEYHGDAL
The assay can be described thus: Inhibition of endothelin-1 evoked currents in mANO1-ETAR/HEK cells by Cl− channel and CaCC blockers. In kind it is cell-based. Set-up: expressed in transfected cells. Conditions: ANO1/ETAR-HEK cells; blockers 10 μM (mefloquine 5 μM) applied 5 min before second 50 nM endothelin-1. The method, then: B. Inhibition of endothelin-1 evoked currents in mANO1-ETAR/HEK cells by Cl^− channel blockers as well as classical inhibitors (each, n=5) of native CaCCs. Chemicals in 10 μM (except mefloquine, 5 μM) were applied 5 min before the second application of endothelin-1. Control (n=12). **p<0.001 compared to control (ANOVA, Duncan's post hoc test). (Error bars=Mean±S.E.M)
(§1) To form gigaseals, individual cell surfaces were touched with a ˜3 Mohm Sylgard-coated glass pipette with gentle suction, and the junction potential was then adjusted to 0 mV. The membrane in contact with the pipette was then ruptured by suction to form a whole cell. The pipette solution contained 140 mM NMDG-Cl, 2 mM MgCl2, 10 mM HEPES, 2 mM ATP, and 0.3 mM GTP adjusted to pH 7.2, and the bath solution contained 140 mM NMDG-Cl, 2 mM MgCl2 and 10 mM HEPES (pH 7.2). For ion selectivity experiments, 140 mM NMDG-Cl was replaced with equimolar NaCl, NaL NaBr, NaNO3, NaF, or Na-gluconate in the bath solution. To determine current-voltage relationships, voltage ramps from −80 or −100 mV to +80 or +100 mV were delivered for 350 ms, or voltage-pulses from −100 mV to +100 mV were delivered for 400 ms to whole cells. When mANO1 was activated by 300 nM intracellular Ca^2+, voltage-pulses of 2500 ms were delivered. Whole-cell currents were amplified using an Axopatch 200B amplifier (Molecular Device, Sunnyvale, Calif.) and stored in a personal computer after digitization by a Digidata 1440 (Molecular Device). For single-channel current recordings, cell-attached or inside-out patches were formed from gigaseals. The pipette and control bath solution contained 140 mM NMDG-Cl, 2 mM MgCl2 and 10 mM HEPES (pH 7.2). […] To create amplitude histograms, pClamp software (version 6.0, Molecular Device) was used to analyze open and closed single-channel current events. The half-amplitude algorithm was used to determine an open event. The minimum duration of an open event was set at 0.1 ms.
(§2) LPA-induced ANO1 currents were blocked by Cl^− channel blockers. The Cl^− channel blockers were applied 10˜20 min before the LPA application. […] This blockade of agonist-induced ANO1 currents by DIDS, niflumic acid, or NPPB were also observed in mammalian cells transfected with mANO1.
In addition, modifiers of various enzymes or transporters such as fluoxetine (serotonin reuptake inhibitor), tamoxifen (estrogen receptor modulator), n-phenyl-anthranilic acid (NPA, cyclooxygenase inhibitor), and mefloquine (antimalarial drug) are known to block native CaCCs (Eggermont, J., Proc Am Thorac Soc. 1, 22-7 (2004); Nilius, B. et al. J Physiol. 498, 381-96 (1997); Nilius, B. & Droogmans, G., Acta Physiol Scand 177, 119-47 (2003)). If ANO1 is a CaCC, mANO1 should be inhibited by these CaCC blockers.

In assay [2] the target is T1, mANO1. The assay can be described thus: Two-electrode voltage clamp currents in Xenopus oocytes injected with mANO1 complementary RNA. In kind it is cell-based. Further details: expressed in transfected cells; host or cells: Xenopus laevis oocytes (cRNA injection). Conditions: for block of LPA current responses by pretreatment: mANO1 oocytes, 1 μM thapsigargin for 3 hours or 10 μM U-73122 for 20 min before 1 μM LPA; for block of LPA-induced ANO1 currents: DIDS 300 μM, niflumic acid 200 μM, NPPB 200 μM applied 10˜20 min before LPA. As to the method: pSDTF-mANO1 obtained in Reference Example 1 was linearized using BamHI. Complementary RNA was transcribed with SP6 RNA polymerase (mMESSAGE mMACHINE® SP6 Kit, Ambion, Austin, Tex.). After being defolliculated with collagenase (Type IA, Sigma), Xenopus laevis oocytes were injected with 50 ng of the complementary RNAs of mANO1 in 50 nl of diethylpyrocarbonate-treated water. Two to five days after the injection, whole cell currents were recorded using the two-electrode voltage clamp technique. The bath solution contained 96 mM NaCl, 1 mM MgCl2, 5 mM HEPES, 2 mM KCl and 1.8 mM CaCl2 at pH 7.5 and was perfused at 2 ml/min. Experiments were performed at room temperature.
Xenopus oocytes provide a recognized model for endogenous CaCC studies because they express endogenous CaCCs that are required for ‘fertilization depolarization’ (Hartzell, H. C. et al., Mol Pharmacol 51, 683-92 (1997)). Furthermore, the biophysical and pharmacological properties of Xenopus CaCCs are similar to those of mammalian CaCCs (Machaca, K. et al., Calcium-Activated Chloride Channels (ed. Fuller, C. M.) (Academic Press, Amsterdam, 2002)). Accordingly, the present inventors expressed mANO1 in Xenopus oocytes and tested its activation by receptor stimulation using 1 μM LPA (lysophosphatidic acid). CaCCs in Xenopus are known to be activated by LPA (Guo, Z. et al., Proc Natl Acad Sci USA. 93, 14367-72 (1996); and Kim, M. J. et al., Biochem Pharmacol. 59, 241-7 (2000)). […] Moreover, LPA-induced ANO1 currents were outwardly-rectifying, like those of native CaCCs in Xenopus oocytes (Machaca, K. et al., supra) (FIG. 4C). The reversal potential was 37.7±1.05 mV (n=5), which is close to the equilibrium potential of Cl^− in Xenopus oocytes (Weber, W., Biochim Biophys Acta 1421, 213-33 (1999)).
Indeed, LPA (1 μM) applied to oocytes expressing mANO1 induced a large inward current.
Further, pretreatment of 1 μM thapsigargin blocked the IP3-induced current in a mANO1-expressing oocyte (FIGS. 10C and 10D).
as §2
(In general: In two-electrode clamp one electrode senses voltage and the other passes current.)

The test system of assay [3] is mANO1. The assay can be described thus: Whole-cell current response to GPCR stimulation in HEK 293T cells co-transfected with mANO1 and a GPCR. Conditions: mANO1 co-expressed in HEK cells with M1R, H1R or AT1R; carbachol 1 μM, histamine 100 μM, angiotensin II 1 μM. In kind it is cell-based, mouse. The method, then:
HEK 293T cells were transfected with pEGFP-N1 (control) (1.0 μg) or pEGFP-N-1-mANO1 (0.8˜1.0 μg) and/or any one of the GPCR cDNAs (1.0 μg) obtained in Reference Example 2, using a FuGENE® HD transfection reagent (Roche Diagnostics, Penzberg, Germany). Transfected cells were maintained in DMEM supplemented with heat inactivated 10% fetal bovine serum (GIBCO BRL, Rockville, Md.) and penicillin-streptomycin at 37 in a 5% CO2 humidified atmosphere. One or two days after transfection, transfected cells were used for biochemical and electrophysiological experiments.
as §1
Under physiological conditions CaCCs are known to be activated by GPCR stimulation. Endothelin-1 is a powerful vasoconstrictor that depolarizes vascular smooth muscle by activating CaCCs (Klockner, U. & Isenberg, G., Pflugers Arch. 418, 168-75 (1991); and Salter, K. J. & Kozlowski, R. Z., J Pharmacol Exp Ther. 279, 1053-62 (1996)). Thus, mANO1 and endothelin receptor subtype A (ETAR) were transfected into HEK 293T cells, along with GFP for visual identification of transfected cells, in accordance with the method of Reference Example 5. Whole cells were used to test the current response of mANO1 to ETAR stimulation. Pipette and bath solutions contained 140 mM N-methyl D-glucamine (NMDG)-Cl, which permitted Cl^− to be used as the main charge carrier. The pipette solution was Ca^2+ free and contained no EGTA. […] In contrast, endothelin-1 evoked currents were minimal in HEK cells transfected with ETAR or control (GFP-transfected only) cells. When mANO1 was transfected alone, 50 nM endothelin-1 evoked appreciable currents; presumably because of the presence of endogenous endothelin receptors in HEK cells.

For `CC/C(=C(\c1ccccc1)c1ccc(OCCN(C)C)cc1)c1ccccc1` [tamoxifen], the “inhibition of response to second application of endothelin-1 (endothelin-1 induced currents)” value (“inhibition of response” below) at mANO1 [1] is recorded as “markedly inhibited”. Take `C/C=C(/C)C(=O)O[C@H]1C(C)=C2[C@H]([C@@H]1OC(=O)CCCCCCC)[C@@](C)(OC(C)=O)C[C@H](OC(=O)CCC)[C@@]1(O)[C@H]2OC(=O)[C@@]1(C)O` [thapsigargin]: the “block of LPA current responses by pretreatment” value on mANO1 [2] is on record as “completely blocked”. Besides, the “block of IP3-induced current” value at mANO1 [2] (pretreatment of 1 μM thapsigargin, mANO1-expressing oocyte) is listed as “blocked”.

For lysophosphatidic acid [LPA], on mANO1 [2] (1 μM LPA, Xenopus oocytes, −60 mV), the “current response to LPA in mANO1 RNA-injected vs water-injected oocytes” value was “increased about six fold”. For `O=C(O)c1cccnc1Nc1cccc(C(F)(F)F)c1` [niflumic acid], at mANO1 [1], the “inhibition of response” value is given as “markedly inhibited”. The “block of LPA-induced ANO1 currents” value on mANO1 [2] (Xenopus oocytes) is “significantly blocked”. In the case of “angiotensin II (DRVYIHPF) [ligand of angiotensin receptor subtype 1 (AT1R)]”, the “current responses to GPCR ligands” value with mANO1 [3] is “robust current responses”. For the compound `O=S(=O)(O)c1cc(N=C=S)ccc1C=Cc1ccc(N=C=S)cc1S(=O)(=O)O` [DIDS, 4,4′-diisothiocyanato-stilbene-2,2′-disulfonic acid], the “inhibition of response” value against mANO1 [1] was “markedly inhibited”. In addition, at mANO1 [2] (Xenopus oocytes), the “block of LPA-induced ANO1 currents” value is given as “significantly blocked”. Consider `OC(c1cc(C(F)(F)F)nc2c(C(F)(F)F)cccc12)C1CCCCN1` (stereo not drawn) [mefloquine], for which the “inhibition of response” value on mANO1 [1] was “markedly inhibited”. `NCCc1c[nH]cn1` [histamine]: in the assay with mANO1 [3], the “current responses to GPCR ligands” value was “robust current responses”.

For `O=C(O)c1ccccc1Nc1ccccc1` [n-phenyl-anthranilic acid], the “inhibition of response” value at mANO1 [1] is “markedly inhibited”. For `O=P(O)(O)O[C@@H]1[C@H](O)[C@H](O)[C@@H](OP(=O)(O)O)[C@H](OP(=O)(O)O)[C@H]1O` [IP3, inositol 1,4,5,-triphosphate], the “inward currents evoked by IP3 micro-injection” value at mANO1 [2] (2 mM IP3 in 50 nl into oocytes expressing ANO1) is reported as “evoked robust inward currents”.

As to `CNCCC(Oc1ccc(C(F)(F)F)cc1)c1ccccc1` (stereo not drawn) [fluoxetine], the “inhibition of response” value on mANO1 [1] is “markedly inhibited”.

On to `O=C(O)c1cc([N+](=O)[O-])ccc1NCCCc1ccccc1` [NPPB, 5-nitro-2-(3-phenyl-propylamino)-benzoate], for which, at mANO1 [1], the “inhibition of response” value was “markedly inhibited”. On mANO1 [2] (Xenopus oocytes), the “block of LPA-induced ANO1 currents” value is on record as “significantly blocked”. Take `C[N+](C)(C)CCOC(N)=O` [carbachol]: in the assay with mANO1 [3], the “current responses to GPCR ligands” value was “robust current responses”. On to `COc1ccc2c(c1)CC[C@@H]1[C@@H]2CC[C@]2(C)[C@@H](NCCCCCCN3C(=O)C=CC3=O)CC[C@@H]12` [U-73122], for which, at mANO1 [2], the “block of LPA current responses by pretreatment” value is reported as “completely blocked”.
